Experimental data reported in patent US20240376148A1, “MEDICAMENT FOR INHIBITING DIETARY OBESITY AND POLYPEPTIDE USED THEREFOR” (INSTITUTE OF ZOOLOGY, CHINESE ACADEMY OF SCIENCES, priority 2022, published 2024).

Legend:
[1] = GF mice experiment (high-fat diet); type: in vivo, Germ-free (GF) C57B1/6 mice
Text: To further determine the relative contribution of the microbiota to the anti-obesity effects of HD, D3 was chosen for GF mice experiment.
Germ-free (GF) C57B1/6 mice were used in the GF mice experiment, kept in a germ-free isolator, and their GF status was verified by fecal PCR every month. At the beginning of the experiment, germ-free (GF) C57B1/6 mice were 4 weeks old, each weighed 14±1 g. They were raised in a room with suitable temperature and humidity control, and the light/dark cycle was 12 hours, free diet and drinking water, and fed with standard laboratory feed (growth and reproduction feed, SPFSLFZ003, product of SPF (Beijing) Experimental Animal Technology Co., Ltd.), after one week of adaptation, they were randomly assigned to each cage, 4-6 mice per cage. A total of 3 treatments were set up, each with 1 cage, and each treatment was subjected to different feeding treatments, specifically as follows:
NC group (i.e. normal diet group): fed with standard laboratory feed (also known as growth and reproduction feed, SPFSLFZ003), free diet and drinking water for 8 weeks.
HFD group (i.e. high-fat diet group): fed with high-fat diet, the high-fat diet used was rodent feed (containing 60 kcal % fat, D12492), free diet and drinking water for 8 weeks.
D3 group (i.e. high-fat diet+D3 medicine intragastric administration group): fed with high-fat diet, free diet and drinking water. Intragastrically administrated with D3 medicine, 0.75 mg-3 mg/Kg body weight, 0.2 ml, once/day for 8 weeks.
Food intake and body weight were monitored weekly.
After the experiment on GF mice, the mice were killed by cervical dislocation. The heart, liver, spleen, lung, kidney, blood, ileum, cecum, and colon were harvested, immediately placed in liquid nitrogen, and stored at −80° C. for further analysis. Precisely dissected and subcutaneous and visceral fat deposits were weighed.

[2] = SPF mice feeding experiment (high-fat diet); type: in vivo, C57/B16J mice
Protocol: C57/B16J mice were used in the SPF mice experiment. At the beginning of the experiment, C57/B16J mice were 4 weeks old, and each weighed 15±1 g. They were raised in a room with suitable temperature and humidity control, and the light/dark cycle was 12 hours, free diet and drinking water, and fed with standard laboratory feed (also known as growth and reproduction feed, item number SPFSLFZ003, product of SPF (Beijing) Experimental Animal Technology Co., Ltd.). After one week of adaptation, they were randomly assigned to a cage, 4-6 mice per cage.
A total of 12 treatments were set up, each with 2 cages of C57/B16J mice, and each treatment was subjected to different feeding treatments, specifically as follows:
NC group (i.e. normal diet group): fed with standard laboratory feed (also known as growth and reproduction feed, SPFSLFZ003), free diet and drinking water, each intragastrically administrated with 0.2 ml solvent daily for 8 weeks.
HFD group (i.e. high-fat diet group): fed with high-fat diet, the high-fat diet used was rodent feed (containing 60% fat, D12492, formula reference Le Roy, T., et al. Dysosmobacter welbionis is a newly isolated human commensal bacterium preventing diet-induced obesity and metabolic disorders in mice. Gut (2021).), free diet and drinking water, each intragastrically administrated with 0.2 ml solvent daily for 8 weeks.
D1 group (i.e. high-fat diet+D1 intragastric administration group): fed with high-fat diet, free diet and drinking water. Intragastrically administrated with synthetic D1, 0.75 mg-3 mg/Kg body weight, 0.2 ml, once/day for 8 weeks.
D2 group (i.e. high-fat diet+D2 intragastric administration group): fed with high-fat diet, free diet and drinking water. Intragastrically administrated with synthetic D2, 0.75 mg-3 mg/Kg body weight, 0.2 ml, once/day for 8 weeks.
D3 group (i.e. high-fat diet+D3 intragastric administration group): fed with high-fat diet, free diet and drinking water. Intragastrically administrated with synthetic D3, 0.75 mg-3 mg/Kg body weight, 0.2 ml, once/day for 8 weeks.
D4 group (i.e. high-fat diet+D4 intragastric administration group): fed with high-fat diet, free diet and drinking water. Intragastrically administrated with synthetic D4, 0.75 mg-3 mg/Kg body weight, 0.2 ml, once/day for 8 weeks.
D5 group (i.e. high-fat diet+D5 intragastric administration group): fed with high-fat diet, free diet and drinking water. Intragastrically administrated with synthetic D5, 0.75 mg-3 mg/Kg body weight, 0.2 ml, once/day for 8 weeks.
D6 group (i.e. high-fat diet+D6 intragastric administration group): fed with high-fat diet, free diet and drinking water. Intragastrically administrated with synthetic D6, 0.75 mg-3 mg/Kg body weight, 0.2 ml, once/day for 8 weeks.
D7 group (i.e. high-fat diet+D7 intragastric administration group): fed with high-fat diet, free diet and drinking water. Intragastrically administrated with synthetic D7, 0.75 mg-3 mg/Kg body weight, 0.2 ml, once/day for 8 weeks.
D8 group (i.e. high-fat diet+D8 intragastric administration group): fed with high-fat diet, free diet and drinking water. Intragastrically administrated with synthetic D8, 0.75 mg-3 mg/Kg body weight, 0.2 ml, once/day for 8 weeks.
D9 group (i.e. high-fat diet+D9 intragastric administration group): fed with high-fat diet, free diet and drinking water. Intragastrically administrated with synthetic D9, 0.75 mg-3 mg/Kg body weight, 0.2 ml, once/day for 8 weeks.
D10 group (i.e. high-fat diet+D10 intragastric administration group): fed with high-fat diet, free diet and drinking water. Intragastrically administrated with synthetic D10, 0.75 mg-3 mg/Kg body weight, 0.2 ml, once/day for 8 weeks.
The feed intake was tracked every week. After the experiment, the mice were weighed and photographs were taken to compare the body size of the mice. After that, the mice were killed by cervical dislocation. […]

[3] = Short-term feed intake experiment of SPF rats; type: in vivo; conditions: after 8 weeks of treatment, p<0.05
Text: A total of 2 treatments were set up, with 5 rats in each treatment, and each treatment was subjected to different feeding treatments, specifically as follows:
HFD group (i.e. high-fat diet group): 8 rats were fed with high-fat diet, the high-fat diet used was rodent feed (containing 60 kcal % fat, D12492), free diet and drinking water for 8 weeks.
D3 group (i.e. high-fat diet+D3 medicine intragastric administration group): 10 rats were fed with high-fat diet, free diet and drinking water. Intragastrically administrated with HD (choose D3), 0.5 mg-2 mg/Kg body weight, 0.5 ml, once/day for 8 weeks.
According to the above treatment, it was carried out for 8 weeks, and then within 1 week, the rats were starved for one day and then given feed, and the feed intake of the animals in the following day was recorded. That is, food weights were recorded every other day (4 separate measurements) and the average daily intake was determined for each 2-day period and calculated for each individual during the one-week measurement period. The obtained were the results of the short-term intake statistics (unit: g/only/day).

RTRYCRTGR [D3]
subcutaneous and visceral fat weight (inguinal subcutaneous, epididymis, perinephric) vs HFD group ([1]; 8 weeks): significantly lower than that of the HFD group | weekly feed intake vs control HFD group ([1]; after 3-4 weeks): significant gap | body weight compared with the HFD group ([1]; intragastric 0.75 mg-3 mg/Kg once/day, 8 weeks): decreased significantly | body size compared with the HFD group ([2]; 8 weeks): smaller than that of the HFD group | subcutaneous and visceral fat weight (inguinal subcutaneous, epididymis, perirenal) vs HFD group ([2]; 8 weeks): significantly lower than that of the HFD group | weekly feed intake vs control HFD group ([2]; after 3-4 weeks): significant difference in feed intake | body weight decrease compared with the HFD group ([2]; intragastric 0.75 mg-3 mg/Kg once/day, after 8 weeks): 12.06% | daily feed intake (short-term) vs HFD group [3]: significantly lower
